Measurements: the NIST ThermoML archive (doi:10.1021/acs.jced.6b00455)

Assay: mn = molality of the nth substance listed, in mol/kg
Settings: 101 kPa, Liquid, Alternating current cell with electrodes

C[N+](C)(C)CCO.O=C([O-])C(F)(F)C(F)(F)C(F)(F)C(F)(F)F [(2-hydroxyethyl)trimethylammonium perfluoropentanoate] + O
Settings	electrical conductivity [S/m]
293.15 K, m1 = 0.000529	0.0033
293.15 K, m1 = 0.001164	0.0074
293.15 K, m1 = 0.001886	0.012
293.15 K, m1 = 0.002281	0.0144
293.15 K, m1 = 0.002766	0.0174
293.15 K, m1 = 0.003311	0.0207
293.15 K, m1 = 0.003805	0.0236
293.15 K, m1 = 0.004377	0.0271
293.15 K, m1 = 0.004908	0.0302
293.15 K, m1 = 0.005409	0.033
293.15 K, m1 = 0.005979	0.0364
293.15 K, m1 = 0.006697	0.0404
293.15 K, m1 = 0.007467	0.0447
293.15 K, m1 = 0.008082	0.0481
293.15 K, m1 = 0.00858	0.0508
293.15 K, m1 = 0.009905	0.058
293.15 K, m1 = 0.01142	0.066
293.15 K, m1 = 0.0124	0.0711
293.15 K, m1 = 0.01324	0.0753
293.15 K, m1 = 0.01399	0.0792
293.15 K, m1 = 0.01513	0.085
293.15 K, m1 = 0.01598	0.0891
293.15 K, m1 = 0.01695	0.0936
293.15 K, m1 = 0.01789	0.098
293.15 K, m1 = 0.01884	0.102
293.15 K, m1 = 0.01994	0.108
293.15 K, m1 = 0.02076	0.112
293.15 K, m1 = 0.02179	0.116
293.15 K, m1 = 0.02264	0.12
293.15 K, m1 = 0.02348	0.123
293.15 K, m1 = 0.0245	0.128
298.15 K, m1 = 0.00173	0.0127
298.15 K, m1 = 0.003076	0.0222
298.15 K, m1 = 0.004761	0.0337
298.15 K, m1 = 0.006222	0.0434
298.15 K, m1 = 0.007398	0.0509
298.15 K, m1 = 0.008599	0.0589
298.15 K, m1 = 0.01005	0.0687
298.15 K, m1 = 0.01198	0.0799
298.15 K, m1 = 0.01368	0.0892
298.15 K, m1 = 0.01543	0.0996
298.15 K, m1 = 0.01692	0.108
298.15 K, m1 = 0.0184	0.116
298.15 K, m1 = 0.02111	0.131
298.15 K, m1 = 0.02244	0.138
298.15 K, m1 = 0.02415	0.148
298.15 K, m1 = 0.02609	0.158
298.15 K, m1 = 0.02818	0.17
298.15 K, m1 = 0.031	0.183
298.15 K, m1 = 0.03389	0.198
298.15 K, m1 = 0.03746	0.215
298.15 K, m1 = 0.04011	0.228
298.15 K, m1 = 0.04312	0.245
303.15 K, m1 = 0.000602	0.005
303.15 K, m1 = 0.001118	0.0092
303.15 K, m1 = 0.001883	0.0153
303.15 K, m1 = 0.002669	0.0214
303.15 K, m1 = 0.002939	0.0235
303.15 K, m1 = 0.003765	0.0297
303.15 K, m1 = 0.004158	0.0325
303.15 K, m1 = 0.004947	0.0388
303.15 K, m1 = 0.005615	0.0446
303.15 K, m1 = 0.006164	0.0494
303.15 K, m1 = 0.006758	0.0518
303.15 K, m1 = 0.007514	0.0567
303.15 K, m1 = 0.008082	0.0606
303.15 K, m1 = 0.008631	0.0643
303.15 K, m1 = 0.009197	0.0673
303.15 K, m1 = 0.01012	0.0743
303.15 K, m1 = 0.01148	0.0832
303.15 K, m1 = 0.01208	0.0872
303.15 K, m1 = 0.0126	0.0906
303.15 K, m1 = 0.0131	0.0936
303.15 K, m1 = 0.01373	0.0973
303.15 K, m1 = 0.01442	0.102
303.15 K, m1 = 0.01495	0.105
303.15 K, m1 = 0.01641	0.114
303.15 K, m1 = 0.01705	0.118
303.15 K, m1 = 0.01772	0.121
303.15 K, m1 = 0.01824	0.124
303.15 K, m1 = 0.01885	0.128
303.15 K, m1 = 0.01941	0.131
303.15 K, m1 = 0.01993	0.134
303.15 K, m1 = 0.02055	0.138
303.15 K, m1 = 0.02116	0.142
303.15 K, m1 = 0.02184	0.146
303.15 K, m1 = 0.02259	0.15
303.15 K, m1 = 0.02308	0.153
303.15 K, m1 = 0.0237	0.157
303.15 K, m1 = 0.0247	0.164
303.15 K, m1 = 0.02557	0.168
308.15 K, m1 = 0.000318	0.0029
308.15 K, m1 = 0.000786	0.007
308.15 K, m1 = 0.001299	0.0115
308.15 K, m1 = 0.001909	0.0169
308.15 K, m1 = 0.002425	0.021
308.15 K, m1 = 0.002911	0.0256
308.15 K, m1 = 0.003184	0.0277
308.15 K, m1 = 0.003945	0.035
308.15 K, m1 = 0.004657	0.0404
308.15 K, m1 = 0.005206	0.0449
308.15 K, m1 = 0.005836	0.0493
308.15 K, m1 = 0.006331	0.0529
308.15 K, m1 = 0.006772	0.0563
308.15 K, m1 = 0.007443	0.0629
308.15 K, m1 = 0.008421	0.0711
308.15 K, m1 = 0.008974	0.0763
308.15 K, m1 = 0.009871	0.0832
308.15 K, m1 = 0.01044	0.0864
308.15 K, m1 = 0.01092	0.0897
308.15 K, m1 = 0.01159	0.0936
308.15 K, m1 = 0.01221	0.0982
308.15 K, m1 = 0.01248	0.101
308.15 K, m1 = 0.01314	0.104
308.15 K, m1 = 0.01361	0.108
308.15 K, m1 = 0.01442	0.114
308.15 K, m1 = 0.01492	0.119
308.15 K, m1 = 0.01568	0.125
308.15 K, m1 = 0.0164	0.13
308.15 K, m1 = 0.01694	0.134
308.15 K, m1 = 0.01787	0.14
308.15 K, m1 = 0.01861	0.145
308.15 K, m1 = 0.01941	0.151
308.15 K, m1 = 0.02104	0.162
308.15 K, m1 = 0.02193	0.168
308.15 K, m1 = 0.02283	0.173
308.15 K, m1 = 0.02369	0.178
308.15 K, m1 = 0.02427	0.182
308.15 K, m1 = 0.02502	0.188
308.15 K, m1 = 0.02563	0.192
313.15 K, m1 = 0.000187	0.0015
313.15 K, m1 = 0.000688	0.0067
313.15 K, m1 = 0.001827	0.0169
313.15 K, m1 = 0.002361	0.0217
313.15 K, m1 = 0.002859	0.0266
313.15 K, m1 = 0.003424	0.0322
313.15 K, m1 = 0.00399	0.0371
313.15 K, m1 = 0.004604	0.0421
313.15 K, m1 = 0.005344	0.0499
313.15 K, m1 = 0.005863	0.0548
313.15 K, m1 = 0.006345	0.0593
313.15 K, m1 = 0.006846	0.064
313.15 K, m1 = 0.008054	0.074
313.15 K, m1 = 0.008628	0.079
313.15 K, m1 = 0.009481	0.0864
313.15 K, m1 = 0.009912	0.0907
313.15 K, m1 = 0.01048	0.0955
313.15 K, m1 = 0.01099	0.0999
313.15 K, m1 = 0.01153	0.104
313.15 K, m1 = 0.0121	0.11
313.15 K, m1 = 0.01268	0.114
313.15 K, m1 = 0.01328	0.119
313.15 K, m1 = 0.01388	0.124
313.15 K, m1 = 0.01459	0.13
313.15 K, m1 = 0.01545	0.136
313.15 K, m1 = 0.01599	0.141
313.15 K, m1 = 0.0169	0.148
313.15 K, m1 = 0.01817	0.157
313.15 K, m1 = 0.01879	0.162
313.15 K, m1 = 0.01965	0.169
313.15 K, m1 = 0.02019	0.172
313.15 K, m1 = 0.02082	0.177
313.15 K, m1 = 0.02134	0.18
313.15 K, m1 = 0.02194	0.184
313.15 K, m1 = 0.02255	0.19
313.15 K, m1 = 0.02328	0.195
313.15 K, m1 = 0.02409	0.2
